Earlier results in US20230117397A1, “PIRFENIDONE FOR CORONAVIRUS TREATMENT” (Excalibur Pharmaceuticals, Inc., priority 2020, published 2023).
Like-named read-outs stand apart in the source and are kept apart here.

Tests used:
TNF-α [1] = conditions: pretreatment 5 minutes before LPS
IL-12 = conditions: pirfenidone pre-treatment before LPS
IFN-γ [2] = conditions: pirfenidone pre-treatment before LPS
IL-10 [3] = conditions: pirfenidone pre-treatment; by 3 hours
endotoxic shock = conditions: for survival: pretreatment 15 minutes before LPS
TNF-α [4] = tested on: TNF-α
TNF-α [5] = conditions: pirfenidone added after cell stimulation with endotoxin
IFN-γ [6] = conditions: pirfenidone added after cell stimulation with endotoxin
TNF-α [7] = conditions: once daily 50 mg/kg/day or 100 mg/kg/day; dose dependent
IL-10 [8] = conditions: once daily 50 mg/kg/day or 100 mg/kg/day; dose dependent
IL-6 = conditions: once daily 50 mg/kg/day or 100 mg/kg/day; dose dependent
[9] = tested on: silicosis (intratracheal silica slurry)
[10] = MALDI-FTICR MSI
[11] = not given; remark: listed apart in the source
[12] = oral, healthy adults
[13] = not given; remark: listed apart in the source
[14] = major urinary metabolite of pirfenidone

SMILES: Cc1ccc(=O)n(-c2ccccc2)c1 [pirfenidone, 5-methyl-1-phenyl-2-(1H)-pyridone]
- TNF-α levels suppressed (TNF-α [1]): 97%
- IL-12 suppressed (IL-12): 84%
- IFN-γ inhibited (IFN-γ [2]): 91%
- IL-10 expression enhanced (IL-10 [3]): approximately 27 fold
- survival (endotoxic shock; 100 mg/kg, 4/8): 50%
- survival (endotoxic shock; 500 mg/kg, 8/8): 100%
- protection from death (endotoxic shock; pretreatment 3 hours before LPS): partial protection
- protection from death (endotoxic shock; pretreatment 6 hours or more before LPS): none
- survived (survivors/animals) (endotoxic shock; single oral dose 1 hour after LPS): 5/5
- survived (survivors/animals) (endotoxic shock; single oral dose 3 hours after LPS): 4/5
- survived (survivors/animals) (endotoxic shock; single oral dose 5 hours after LPS): 1/5
- TNF-α expression (TNF-α [4]; 200 mg/kg immediately after LPS): inhibited
- TNF-α expression inhibited (TNF-α [4]; 200 mg/kg, 30 or 60 minutes before or after LPS): not
- levels of secreted TNF-α protein (TNF-α [5]): significantly decrease
- steady state levels of TNF-α RNA (TNF-α [5]): did not change
- levels of secreted IFN-γ protein (IFN-γ [6]): significantly decrease
- steady state levels of IFN-γ RNA (IFN-γ [6]): did not change
- TNF-α (TNF-α [7]): significant reduction
- IL-10 (IL-10 [8]): significant reduction
- IL-6 (IL-6): significant reduction
- dose response difference in inflammation and fibrosis ([9]; between the 50 mg/kg/day and 100 mg/kg/day treatment groups): approximately 15%
- inflammation and resulting fibrosis ([9]; once daily 50 mg/kg/day or 100 mg/kg/day): significantly decreased
- time to maximum serum concentration (after dosing): within an hour
- terminal half-life (in vivo): approximately 2 hours
- T1/2 in kidney tissue ([10]; kidney tissue): 49 min
- T1/2 in liver tissue ([10]; liver tissue): 46 min
- T1/2 in lung tissue ([10]; lung tissue): 67 min
- half-life ([11]; following from the clearance): less than 2 hours
- drug clearance ([11]; oral administration): approximately 30 ml/min/kg
- terminal half-life [12]: approximately 2.5 hours
- time to maximum levels in blood ([12]; fasting): 0.5 h
- time to maximum levels in blood ([12]; post food): 2 h
- most common side effects ([13]; 10% or more greater than placebo): nausea, dyspepsia and rash
- AST/ALT elevation, incidence ([13]; in vivo): < 3%
- bilirubin elevation, incidence ([13]; very rarely): 0.1%

SMILES: O=C(O)c1ccc(=O)n(-c2ccccc2)c1 [5-carboxy-pirfenidone]
- biological activity [14]: limited to no biological activity
